Assay results: publication PMC10701869, “Anti-Xanthine Oxidase 5′-Hydroxyhericenes A–D from the Edible Mushroom Hericium erinaceus and Structure Revision of 3-[2,3-Dihydroxy-4-(hydroxymethyl)tetrahydrofuran-1-yl]-pyridine-4,5-diol” (ACS Omega, 2023)
Where a name gives a salt, the structure may show the parent alone.

Assays:
[1] = test system: T47D; assay: cells; parameters: species or system MDA-MB-231, MRC-5; MTT cell viability, growth inhibition versus DMSO control, n = 4; details: Homo sapiens, 48 h
Method: (§1) Cytotoxicity assays were evaluated against the following cell lines: T-47D ATCC, HTB-133 (hormone-dependent breast cancer), and MRC-5 ATCC, CCL171 (normal embryonic lung) from the American Type Culture Collection (ATCC, Manassas, VA) as well as MDA-MB-231 ((hormone-independent breast cancer) from M.D. Anderson Cancer Center, Houston, TX). […] The cutoff concentration is 50 μg mL^–1. Cell viability was determined using the MTT assay. […] The selectivity index between the T47D cancer cell line and the MRC-5 normal cell line is 13.5. […] In addition, this compound was previously reported to be noncytotoxic to MCF-7 cancer cell line.[36] This means that the growth inhibitory effect of hericerin depends on the types of breast cancer cell. T47D, MDA-MB-231, and MCF-7 are popular models in breast cancer studies. The T47D and MCF-7 are hormone-dependent breast cancer cells, but MDA-MB-231 is a hormone-independent breast cancer cell. […] Thus, hericerin (13) may be a good candidate to develop an anticancer agent against progesterone-sensitive breast cancer cells. Moreover, hericerin was reported to inhibit the growth of A549, SK-OV-3, SK-MEL-2, HCT-15, and HL-60 cancer cell lines.[10],[38] To determine the possible mechanism, we performed an apoptosis assay. First, T47D and MDA-MB-231 breast cancer cells were exposed to compound 13 for 48 h, and the abundance of two apoptotic markers, namely, PARP and procaspase 3, was determined by Western blot.

[2] = in vitro; parameters: species or system T47D, MDA-MB-231; MTT cell viability, growth inhibition versus DMSO control, n = 4; details: human, mrc-5 cells; read-out: MRC-5 IC50
Method: as §1, with “To determine the possible mechanism, we performed an apoptosis assay.” left out

[3] = molecular target: T1, xanthine oxidase (Bos taurus, UniProt P80457); assay: biochemical; parameters: xanthine oxidase inhibition (IXO assay), dose-response, n = 3
T1 construct: gene XDH
T1 sequence (P80457 2-1332): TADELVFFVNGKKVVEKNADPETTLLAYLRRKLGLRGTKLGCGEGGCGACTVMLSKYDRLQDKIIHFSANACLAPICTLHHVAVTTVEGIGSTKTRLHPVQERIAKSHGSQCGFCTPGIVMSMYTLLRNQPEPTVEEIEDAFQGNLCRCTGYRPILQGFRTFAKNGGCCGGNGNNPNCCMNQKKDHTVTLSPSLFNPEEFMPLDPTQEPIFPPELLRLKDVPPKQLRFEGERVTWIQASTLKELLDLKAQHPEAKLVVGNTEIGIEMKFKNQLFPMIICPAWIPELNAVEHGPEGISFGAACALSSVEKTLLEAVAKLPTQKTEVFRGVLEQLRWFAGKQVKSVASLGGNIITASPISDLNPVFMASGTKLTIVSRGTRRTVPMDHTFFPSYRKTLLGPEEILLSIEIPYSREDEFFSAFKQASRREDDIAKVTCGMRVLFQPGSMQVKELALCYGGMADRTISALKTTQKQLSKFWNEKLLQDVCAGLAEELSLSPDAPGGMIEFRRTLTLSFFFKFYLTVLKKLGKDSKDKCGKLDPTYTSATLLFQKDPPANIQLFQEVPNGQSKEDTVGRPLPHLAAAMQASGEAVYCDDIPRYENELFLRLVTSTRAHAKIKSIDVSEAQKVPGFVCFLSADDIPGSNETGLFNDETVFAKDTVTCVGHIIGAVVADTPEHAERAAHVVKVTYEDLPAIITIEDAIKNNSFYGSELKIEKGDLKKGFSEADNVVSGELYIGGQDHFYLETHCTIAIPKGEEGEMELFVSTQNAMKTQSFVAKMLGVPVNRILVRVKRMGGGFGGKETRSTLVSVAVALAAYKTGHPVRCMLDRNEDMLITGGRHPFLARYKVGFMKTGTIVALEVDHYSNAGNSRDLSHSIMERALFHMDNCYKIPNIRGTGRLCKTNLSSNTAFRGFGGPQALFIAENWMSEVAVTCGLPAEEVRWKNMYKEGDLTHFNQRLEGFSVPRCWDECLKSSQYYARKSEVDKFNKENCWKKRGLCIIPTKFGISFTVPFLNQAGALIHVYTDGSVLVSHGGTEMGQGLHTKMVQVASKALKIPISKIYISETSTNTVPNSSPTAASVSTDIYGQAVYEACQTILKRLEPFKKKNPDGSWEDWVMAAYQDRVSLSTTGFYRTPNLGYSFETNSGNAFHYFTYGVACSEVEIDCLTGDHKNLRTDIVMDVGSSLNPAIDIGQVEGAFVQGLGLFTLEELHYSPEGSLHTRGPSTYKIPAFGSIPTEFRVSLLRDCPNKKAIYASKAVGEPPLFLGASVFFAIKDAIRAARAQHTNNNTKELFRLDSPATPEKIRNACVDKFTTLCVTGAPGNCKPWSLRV
Method: The assays were evaluated against DPPH (diphenyl picrylhydracyl radical), XXO (reactive oxygen species generated by xanthine oxidase), and IXO (inhibition of xanthine oxidase). DMSO was used as a solvent and a negative control. […] The cutoff concentration is 100 μg mL^–1 for DPPH and 200 μg mL^–1 for XXO and IXO.

[4] = test system: MDA-MB-231; assay: cells; parameters: species or system T47D, MRC-5; MTT cell viability, growth inhibition versus DMSO control, n = 4; details: Homo sapiens, MDA-MB-231, 48 h
Method: as §1, with “To determine the possible mechanism, we performed an apoptosis assay.” left out

inhibition at 200 µg/mL [3] [%]	SMILES	IC50 [1] [µM]	CC50 at 48 h [2] [µM]	inhibition at 50 µg/mL [1] [%]	inhibition at 50 µg/mL [4] [%]	IC50 [4] [µM]
	COc1cccc2c1C(=O)c1c(O)c3c(c(O)c1C2=O)C[C@@](O)(C(=O)CO)C[C@@H]3O[C@H]1C[C@H](N)[C@H](O)[C@H](C)O1 [Doxorubicin·HCl, Doxorubicin hydrochloride]	0.69 ± 0.03	2.75 ± 0.21			
27 ± 7.9	Nc1ncnc2c1ncn2[C@@H]1O[C@H](CO)[C@@H](O)[C@H]1O [compound 6, adenosine]			2.3 ± 2.9	2.5 ± 5	
43.3 ± 5	COc1cc2c(c(O)c1C/C=C(\C)CCC=C(C)C)C(=O)N(CCc1ccccc1)C2 [compound 13, hericerin]	5.9 ± 1.6	79.6 ± 13.7			57.5 ± 5.4
